Assay results: ChEMBL document CHEMBL1124271, “Synthesis of ethyl 2-(4-chlorophenyl)-5-(2-furyl)-4-oxazoleacetate, a hypolipidemic agent, and related compounds” (1988)
Active and inactive are the calls of the source. The rule behind the calls is not given here.

How the values were obtained:
[1] = organism: Rattus norvegicus; experiment: Ability to inhibit collagen -induced platelet aggregation in male SD rats; No evaluation; type: functional, organism-based
[2] = organism: Rattus norvegicus; experiment: Hypolipidemic activity was expressed as percent decrease in serum cholesterol in Sprague-Dawley rats; No evaluation; type: functional, organism-based
[3] = organism: Rattus norvegicus; experiment: Hypolipidemic activity was expressed as percent decrease in triglycerides; No evaluation; type: functional, organism-based
[4] = organism: Rattus norvegicus; experiment: Ability to inhibit collagen -induced platelet aggregation in male SD rats; <10; type: functional; parameters: concentration or dose not given beside the values
[5] = organism: Rattus norvegicus; experiment: Hypolipidemic activity was expressed as percent decrease in serum cholesterol in Sprague-Dawley rats; type: functional; parameters: concentration or dose not given beside the values
[6] = organism: Rattus norvegicus; experiment: Hypolipidemic activity was expressed as percent decrease in triglycerides in Sprague-Dawley rats; type: functional; parameters: concentration or dose not given beside the values
[7] = organism: Rattus norvegicus; experiment: Inhibition of collagen-induced platelet aggregation in male SD rats; Inhibition >= 10% but < aspirin (34-96%).; type: functional
[8] = organism: Rattus norvegicus; experiment: Hypolipidemic activity was expressed as percent decrease in triglycerides; type: functional; parameters: concentration or dose not given beside the values
[9] = organism: Rattus norvegicus; experiment: Hypolipidemic activity was expressed as percent decrease in serum cholesterol; type: functional; parameters: concentration or dose not given beside the values
[10] = organism: Rattus norvegicus; experiment: The ability to inhibit platelet aggregation was tested; <10; type: functional
[11] = organism: Rattus norvegicus; experiment: The ability to inhibit platelet aggregation was tested; Inhibition >= 10% but < aspirin (34-96%); type: functional
[12] = organism: Rattus norvegicus; experiment: Ability to inhibit collagen -induced platelet aggregation in male SD rats; NE means no evaluation; type: functional, organism-based
[13] = organism: Rattus norvegicus; experiment: Hypolipidemic activity was expressed as percent decrease in serum cholesterol; NE means no evaluation; type: functional, organism-based
[14] = organism: Rattus norvegicus; experiment: Hypolipidemic activity was expressed as percent decrease in triglycerides; NE means no evaluation; type: functional, organism-based
[15] = organism: Rattus norvegicus; experiment: Ability to inhibit collagen -induced platelet aggregation in male SD rats; Inhibition >= aspirin (34-96%); type: functional, organism-based

Structure (SMILES)	Reduction [5] [%]	Reduction [6] [%]	Inhibition [7]	other results
CCOC(=O)Cc1nc(C2CCCCC2)oc1-c1ccco1	–	–	–	inhibition [1]: No effect; Reduction [2]: No effect; Reduction [3]: No effect
CCOC(=O)Cc1nc(-c2cccc(C(F)(F)F)c2)oc1-c1ccco1	15	0	–	Inhibition [4]: <10%
CC(C)c1nc(CC(=O)O)c(-c2ccco2)o1	5	9	–	Inhibition [4]: <10%
CC(C)c1nc(CC(=O)O)c(-c2ccsc2)o1	20	16	>=10%	–
O=C(O)Cc1nc(-c2ccc(Cl)cc2)oc1-c1ccco1	20	35	>=10%	–
CCCCCCCCCCCCOC(=O)Cc1nc(-c2ccc(Cl)cc2)oc1-c1ccco1	–	–	–	Inhibition [4]: <10%; Reduction [8]: 30%; Reduction [9]: 20%
CCOC(=O)Cc1nc(-c2ccc(F)cc2)oc1-c1ccco1	20	24	>=10%	–
COc1ccc(-c2nc(CC(=O)O)c(-c3ccco3)o2)cc1	5	-1	>=10%	–
CCOC(=O)C(C)(C)c1nc(-c2ccc(Cl)cc2)oc1-c1ccco1	-4	-25	–	Inhibition [10]: <10%
CCOC(=O)C(C)c1nc(-c2ccc(Cl)cc2)oc1-c1ccco1 (configuration not stated)	20	31	–	Inhibition [11]: >=10%
O=C(O)Cc1nc(-c2ccc(Cl)cc2)oc1-c1ccoc1	23	42	–	–
CCOC(=O)Cc1nc(C(C)C)oc1-c1ccco1	12	21	–	Inhibition [4]: <10%
CCOC(=O)Cc1nc(-c2ccc(OC)cc2)oc1-c1ccco1	0	4	>=10%	–
CCOC(=O)Cc1nc(-c2ccccc2)oc1C1CCCO1 (configuration not stated)	8	8	–	Inhibition [4]: <10%
O=C(Cc1nc(-c2ccc(Cl)cc2)oc1-c1ccco1)OCc1cccnc1	18	42	–	Inhibition [4]: <10%
CCOC(=O)Cc1nc(-c2ccc(Cl)c(Cl)c2)oc1-c1ccoc1	19	49	–	Inhibition [4]: <10%
CCOC(=O)Cc1nc(-c2ccc(Cl)cc2)oc1-c1ccsc1	23	39	–	Inhibition [11]: >=10%
CCOC(=O)Cc1nc(-c2ccc(F)cc2)oc1-c1ccoc1	30	28	>=10%	–
O=C(O)Cc1nc(-c2ccc(Cl)c(Cl)c2)oc1-c1ccoc1	19	60	>=10%	–
CCOC(=O)Cc1nc(-c2ccc(Cl)cc2)oc1-c1ccc(C=O)o1	–	–	–	Reduction [8]: -5%; Reduction [9]: 9%
CCOC(=O)Cc1nc(-c2ccc(Cl)cc2)oc1N1CCCC1	-2	-20	–	–
CCCCCCCc1nc(CC(=O)O)c(-c2ccsc2)o1	–	–	>=10%	Reduction [8]: 27%; Reduction [9]: 11%
O=C(O)Cc1nc(-c2ccccc2)oc1-c1ccco1	14	29	>=10%	–
CCOC(=O)Cc1nc(-c2ccc(Cl)cc2)oc1-c1ccco1	23	35	>=10%	–
CCOC(=O)Cc1nc(-c2ccc(C)cc2)oc1-c1ccco1	9	-6	>=10%	–
CCOC(=O)C(C)c1nc(-c2ccc(Cl)cc2)oc1-c1ccoc1 (configuration not stated)	22	45	–	Inhibition [11]: >=10%

Structure (SMILES)	Reduction [5] [%]	Reduction [6] [%]	Inhibition [7]	other results
CCCCCCCc1nc(CC(=O)OCC)c(-c2ccsc2)o1	–	–	–	inhibition [12]: No effect; Reduction [13]: No effect; Reduction [14]: No effect
CC(=O)Oc1ccccc1C(=O)O	–	–	–	inhibition [15]: Active
CC(C)(C(=O)O)c1nc(-c2ccc(Cl)cc2)oc1-c1ccco1	16	54	–	Inhibition [10]: <10%
O=C(O)Cc1nc(-c2ccc(F)cc2)oc1-c1ccoc1	23	38	>=10%	–
Cc1ccc(-c2nc(CC(=O)O)c(-c3ccco3)o2)cc1	9	29	>=10%	–
O=C(O)Cc1nc(C2CCCCC2)oc1-c1ccco1	13	18	>=10%	–
CCOC(=O)Cc1nc(-c2ccc(Cl)cc2)oc1-c1ccc(S(=O)(=O)O)o1	-5	23	–	–
CCOC(=O)Cc1nc(-c2ccc(Cl)cc2)sc1-c1ccco1	-15	17	–	–
Cc1nc(CC(=O)O)c(-c2ccco2)o1	10	-20	–	Inhibition [4]: <10%
CCOC(=O)Cc1nc(-c2ccc(Cl)cc2)oc1-c1ccc(Br)o1	10	2	–	–
CCOC(=O)C(C)(C)Oc1ccc(Cl)cc1 [CLOFIBRATE]	–	–	–	Inhibition [4]: <10%; Reduction [8]: 30%; Reduction [9]: 15%
CCCCCCCOC(=O)Cc1nc(-c2ccc(Cl)cc2)oc1-c1ccco1	–	–	–	Inhibition [4]: <10%; Reduction [8]: 42%; Reduction [9]: 19%
CCCCc1nc(CC(=O)OCC)c(-c2ccco2)o1	2	16	–	–
CCOC(=O)Cc1nc(C)oc1-c1ccco1	–	–	–	inhibition [1]: No effect; Reduction [2]: No effect; Reduction [3]: No effect
CCOC(=O)Cc1nc(-c2ccccc2)oc1-c1ccoc1	17	46	>=10%	–
CCOC(=O)Cc1nc(C(C)C)oc1-c1ccsc1	15	28	>=10%	–
O=C(O)Cc1nc(-c2cccc(C(F)(F)F)c2)oc1-c1ccco1	8	50	>=10%	–
CCOC(=O)Cc1nc(-c2ccc(Cl)cc2)sc1-c1ccsc1	-8	21	–	inhibition [1]: No effect
CCOC(=O)Cc1nc(-c2ccc(Cl)cc2)oc1-c1ccc(C(C)=O)o1	0	-14	–	–
O=C(O)Cc1nc(-c2ccc(F)cc2)oc1-c1ccco1	–	–	>=10%	Reduction [8]: 10%; Reduction [9]: 20%
CCOC(=O)Cc1nc(-c2ccccc2)oc1-c1ccco1	14	23	>=10%	–
CCCCOC(=O)Cc1nc(-c2ccc(Cl)cc2)oc1-c1ccco1	20	27	–	Inhibition [4]: <10%
CCOC(=O)C(CC)c1nc(-c2ccc(Cl)cc2)oc1-c1ccco1 (configuration not stated)	0	-10	–	Inhibition [10]: <10%
CCOC(=O)Cc1nc(-c2ccc(Cl)cc2)oc1-c1ccoc1	25	42	>=10%	–
CC(C(=O)O)c1nc(-c2ccc(Cl)cc2)oc1-c1ccco1 (configuration not stated)	16	41	–	–
